Results published in US20110288142A1, “CRYSTALLINE N--5-chloro-4-(4-chloro-1-methyl-1H-pyrazol-5-yl)-2-thiophenecarboxamide hydrochloride” (priority 2009, published 2011).

How the values were obtained:
[1] = Solubility in bio-relevant media; format: physicochemical
[2] = Chemical stability of solid form; format: physicochemical; conditions: compared with free acid and other salt forms, including the amorphous hydrochloride form
[3] = Hygroscopicity, moisture sorption on VTI instrument SGA 100; conditions: for level of hygroscopicity / weight increase of the compound (moisture): 25 °C; for hygroscopicity of the solid form (general statement): hydrochloride
Text: There were 24 Relative Humidity steps used. The Relative Humidity at each step is as follows.

| solubility in bio-relevant media [1] | chemical stability [2] | level of hygroscopicity ([3]; crystalline form, no drying, 24 relative humidity steps) | weight increase of the compound (moisture) ([3]; crystalline form, no drying, 24 relative humidity steps, 5 to 90) | hygroscopicity of the solid form (general statement) [3] | level of hygroscopicity ([3]; amorphous form, dried at 60 °C, 19 relative humidity steps) | weight increase of the compound (moisture) ([3]; amorphous form, dried at 60 °C, 19 relative humidity steps, 0 to 90) | SMILES |
| --- | --- | --- | --- | --- | --- | --- | --- |
| good solubility | improved chemical stability | low level of hygroscopicity | less than 1 % w/w | non-hygroscopic | – | – | Cl.Cn1ncc(Cl)c1-c1cc(C(=O)N[C@H](CN)Cc2cccc(F)c2)sc1Cl [Compound A] |
| – | – | – | – | hygroscopic | high level of hygroscopicity | more than 18 % w/w | Cl.Cn1ncc(Cl)c1-c1cc(C(=O)N[C@H](CN)Cc2cccc(F)c2)sc1Cl [Example 3] |
